Experimental data published in paper PMC9527238, “Glutamate and GABAA receptor crosstalk mediates homeostatic regulation of neuronal excitation in the mammalian brain” (Signal Transduction and Targeted Therapy, 2022).

Assays:
[1] = molecular target: T1, α1β2 GABAARs (Rattus norvegicus, UniProt P62813+P63138); assay: [3H]glutamate binding assay, plasma membranes of HEK293 cells overexpressing α1 and β2; conditions: 40 nM [3H]glutamate + 0.4 mM non-radiolabeled competitor
T1 construct: expressed in transfected cells; host or cells: HEK293
Experimental: For membrane preparation, transfected or non-transfected HEK293 cells were washed twice with cold PBS and harvested by scraping into 5 ml cold PBS. Cells were then centrifuged at 1200 × g for 12 min at 4 °C and medium was removed. The washing procedure was repeated twice. Then the cell pellet was re-suspended into 1 ml of 50 mM Tris-HCl buffer (pH 7.4, with protease inhibitor) and homogenized using syringes with 18-G, 21-G and 23-G needles.
To separate the membrane, the homogenate were centrifuged for 20 min at 20,000 × g at 4 °C. Then the pellet was re-suspended into 1 ml of 50 mM Tris-HCl buffer, pH 7.4 and centrifuged again. After repeating this procedure for one more time, the pellet was re-suspended into 1 ml of 50 mM Tris-HCl buffer, pH 7.4 and the protein concentration was measured.
To conduct the binding assay, 100 µg membrane enriched preparation was incubated with 40 nM [3H]-Glutamate in a total volume of 0.5 ml in 50 mM Tris-HCl buffer, pH 7.4 for 1 h on ice. […] Then the reaction was terminated by quickly filtering the solution on Whatman filter paper and washing by 3.5 ml Tris-HCl buffer. Radioactivity was measured in a Beckman liquid scintillation counter.

[2] = molecular target: T2, α1 β2 ^I180A γ2 GABAAR (Rattus norvegicus, UniProt P62813+P63138, I205A); assay: Patch clamp, HEK293, mutant GABAAR; type: cell-based; conditions: GABA-evoked currents
T2 construct: expressed in transfected cells; host or cells: HEK293
Experimental: (§1) To positively confirm one of these two putative binding sites involved in glutamate binding, we performed a systemic mutational analysis of critical amino acids around these two sites followed by electrophysiological characterizations of their impacts on glutamate potentiation in HEK293 cells expressing wild-type or mutated α1β2γ2 GABAARs (Table 1).
(§2) HEK293 cells were cultured in DMEM (Invitrogen) supplemented with 10% fetal bovine serum. Cells were grown to 40–60% confluence and transiently transfected using Lipofectamine 2000 (Invitrogen) with 1:0.5–1 plasmid/lipid ratio. Cells were transfected with a pBK-CMV expression vector containing a rat recombinant GABAAR α, β or γ subunits. Co-transections were done with a plasmid ratio of 1:1 αβ and 2:2:1 for αβγ subunit combinations, respectively. pcDNA3.1-GFP was also co-transfected along with GABAAR subunits as a transfected marker in order to facilitate the visualization of the transfected cells during electrophysiological experiments. Cells were re-plated on glass coverslips after 15–20 h transfection and were cultured for an additional 15–24 h before whole-cell patch-clamp recordings.
(§3) The site-directed mutagenesis of α, β or γ subunits were performed by using the QuikChange method (Stratagene). […] Wild-type or mutant subunits were transfected in HEK293 cells and subjected to electrophysiology examinations.
(§4) Whole-cell patch-clamp recordings were performed under voltage-clamp mode using an Axopatch 200B or 1D patch-clamp amplifier (Molecular Devices) on HEK293 cells and cultured neurons. Whole-cell currents were recorded at a holding potential of −60 mV, and signals were filtered at 2 kHz, digitized at 10 kHz (Digidata 1322 A). Recording pipettes (3–5 MΩ) were filled with the intracellular solution that contained (mM): CsCl 140, HEPES 10, Mg-ATP 4, QX-314 5, pH 7.20; osmolarity, 290–295 mOsm. BAPTA (10 mM) was added in the intracellular solution. The coverslips were continuously superfused with the extracellular solution containing (mM): NaCl 140, KCl 5.4, HEPES 10, MgCl2 1.0, CaCl2 1.3, glucose 20, pH 7.4; osmolarity, 305–315 mOsm. […] Dose–response curves were created by fitting data to Hill equation: I = Imax/[1 + (EC50/[A])^n], where I is the current, Imax is the maximum current, [A] is a given concentration of agonist, n is the Hill coefficient. […] All experiments were performed at room temperature.

[3] = molecular target: T3, α1 β2^G126A γ2 GABAAR (Rattus norvegicus, UniProt P62813+P63138, G151A); assay: Patch clamp, HEK293, mutant GABAAR; type: cell-based
T3 construct: expressed in transfected cells; host or cells: HEK293
Experimental: as §1, §2, §3, §4

[4] = molecular target: T4, α1 β2^Q63A γ2 GABAAR (Rattus norvegicus, UniProt P62813+P63138, Q88A); assay: Patch clamp, HEK293, mutant GABAAR; type: cell-based
T4 construct: expressed in transfected cells; host or cells: HEK293
Experimental: as §1, §2, §3, §4

[5] = molecular target: T5, α1 β2^V177A γ2 GABAAR (Rattus norvegicus, UniProt P62813+P63138, V202A); assay: Patch clamp, HEK293, mutant GABAAR; type: cell-based
T5 construct: expressed in transfected cells; host or cells: HEK293
Experimental: as §1, §2, §3, §4

[6] = molecular target: T6, α1 β2^Y61A γ2 GABAAR (Rattus norvegicus, UniProt P62813+P63138, Y86A); assay: Patch clamp, HEK293, mutant GABAAR; type: cell-based
T6 construct: expressed in transfected cells; host or cells: HEK293
Experimental: as §1, §2, §3, §4

[7] = molecular target: T7, α1^E208A β2 γ2 GABAAR (Rattus norvegicus, UniProt P62813+P63138, E235A); assay: Patch clamp, HEK293, mutant GABAAR; type: cell-based; conditions: GABA-evoked currents
T7 construct: expressed in transfected cells; host or cells: HEK293
Experimental: as §1, §2, §3, §4

[8] = molecular target: T8, α1^F99A β2 γ2 GABAAR (Rattus norvegicus, UniProt P62813+P63138, F126A); assay: Patch clamp, HEK293, mutant GABAAR; type: cell-based; conditions: GABA-evoked currents
T8 construct: expressed in transfected cells; host or cells: HEK293
Experimental: as §1, §2, §3, §4

[9] = molecular target: T9, α1^H101A β2 γ2 GABAAR (Rattus norvegicus, UniProt P62813+P63138, H128A); assay: Patch clamp, HEK293, mutant GABAAR; type: cell-based; conditions: GABA-evoked currents
T9 construct: expressed in transfected cells; host or cells: HEK293
Experimental: as §1, §2, §3, §4

[10] = molecular target: T10, α1^S158A β2 γ2 GABAAR (Rattus norvegicus, UniProt P62813+P63138, S185A); assay: Patch clamp, HEK293, mutant GABAAR; type: cell-based; conditions: GABA-evoked currents
T10 construct: expressed in transfected cells; host or cells: HEK293
Experimental: as §1, §2, §3, §4

[11] = molecular target: T11, α1^S205A β2 γ2 GABAAR (Rattus norvegicus, UniProt P62813+P63138, S232A); assay: Patch clamp, HEK293, mutant GABAAR; type: cell-based; conditions: GABA-evoked currents
T11 construct: expressed in transfected cells; host or cells: HEK293
Experimental: as §1, §2, §3, §4

[12] = molecular target: T12, α1^T206A β2 γ2 GABAAR (Rattus norvegicus, UniProt P62813+P63138, T233A); assay: Patch clamp, HEK293, mutant GABAAR; type: cell-based; conditions: GABA-evoked currents
T12 construct: expressed in transfected cells; host or cells: HEK293
Experimental: as §1, §2, §3, §4

[13] = molecular target: T13, α1^Y159A β2 γ2 GABAAR (Rattus norvegicus, UniProt P62813+P63138, Y186A); assay: Patch clamp, HEK293, mutant GABAAR; type: cell-based; conditions: GABA-evoked currents
T13 construct: expressed in transfected cells; host or cells: HEK293
Experimental: as §1, §2, §3, §4

[14] = molecular target: T14, α1 β2^E181G γ2 GABAAR (Rattus norvegicus, UniProt P62813+P63138, E206G); assay: Patch clamp, HEK293, mutant GABAAR; type: cell-based
T14 construct: expressed in transfected cells; host or cells: HEK293
Excerpt: (§5) The subunits are color-coded individually. The boxed regions are further enlarged in the middle panels, highlighting the predicted glutamate binding pocket in the α+ and β− interface, just below the loop C. […] Relative potentiation was obtained by normalizing potentiation observed in the mutated receptor to that in the respective wild-type receptor.
as §1, §2, §3, §4

[15] = molecular target: T15, α1^K104D β2 γ2 GABAAR (Rattus norvegicus, UniProt P62813+P63138, K131D); assay: Patch clamp, HEK293, mutant GABAAR; type: cell-based
T15 construct: expressed in transfected cells; host or cells: HEK293
Excerpt: as §5, §1, §2, §3, §4

[16] = molecular target: T16, α1^K155D β2 γ2 GABAAR (Rattus norvegicus, UniProt P62813+P63138, K182D); assay: Patch clamp, HEK293, mutant GABAAR; type: cell-based; conditions: GABA-evoked currents
T16 construct: expressed in transfected cells; host or cells: HEK293
Excerpt: as §5, §1, §2, §3, §4

## NCCCC(=O)O [GABA, gamma-Aminobutyric acid]
[1]
  [3H]glutamate binding activity in presence of competitor: 939.2 ± 88.8 CPM
[2]
  Imax (nA): 1.7 ± 0.4 nA
[3]; GABA dose-response
  Hill Slope: 2.28 ± 0.74
[3]; GABA-evoked currents
  Imax (nA): 1.3 ± 0.4 nA
[4]; GABA dose-response
  Hill Slope: 2.09 ± 0.93
[4]; GABA-evoked currents
  Imax (nA): 1.0 ± 0.5 nA
[5]; GABA dose-response
  Hill Slope: 1.12 ± 0.37
[5]; GABA-evoked currents
  Imax (nA): 1.7 ± 0.9 nA
[6]; GABA dose-response
  Hill Slope: 2.91 ± 1.30
[6]; GABA-evoked currents
  Imax (nA): 1.0 ± 0.5 nA
[7]
  Imax (nA): 1.8 ± 0.8 nA
[8]
  Imax (nA): 1.0 ± 0.7 nA
[9]
  Imax (nA): 0.9 ± 0.5 nA
[10]
  Imax (nA): 1.3 ± 0.5 nA
[11]
  Imax (nA): 2.3 ± 1.1 nA
[12]
  Imax (nA): 1.9 ± 0.8 nA
[13]
  Imax (nA): 1.1 ± 0.5 nA
[14]; GABA dose-response
  Hill Slope: 1.59 ± 0.14
[14]; GABA-evoked currents
  Imax (nA): 1.1 ± 0.2 nA
[15]; GABA dose-response
  Hill Slope: 1.70 ± 0.17
[15]; GABA-evoked currents
  Imax (nA): 2.3 ± 0.7 nA
[16]
  Imax (nA): 1.3 ± 0.5 nA
